Experimental findings from US20050142581A1, “Microrna as ligands and target molecules” (priority 2003, published 2005) are described below.

Oligonucleotides are written 5' to 3', each unit as a sugar letter and its base; * is a phosphorothioate linkage, no mark a phosphodiester; rarer units and linkages stand in square brackets, end groups in braces. Plain capitals give the bases only. e = 2'-O-(2-methoxyethyl) (MOE); [5mC] = 5-methylcytosine; d = 2'-deoxy (DNA)

For the first data set, the system named is human CD40 mRNA. The data set is described as follows: Inhibition of CD40 mRNA levels by oligonucleotides (real-time RT-PCR). The data set is classed as cell-based. Details: concentration or dose not given beside the values. Conditions: 2'-MOE gapmers, 18 nucleotides, phosphorothioate throughout; averaged from three experiments. The procedure, abridged: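 Cells at ~80% confluency were transfected with oligonucleotide at 150 nM final using Lipofectin 3.75 μg/ml for 4 h and harvested 16 h after treatment. Poly(A)+ mRNA was taken for TaqMan real-time RT-PCR of CD40, and percent inhibition was derived from a standard curve of untreated control mRNA.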
A general note: Quantitative PCR measures a nucleic acid by following its amplification.
As to “19294 (eA*e[5mC]*eT*eG*dA*dC*dT*dG*dG*dG*dC*dA*dT*dA*eG*e[5mC]*eT*e[5mC]; antisense) [compound 19294]”, the “% Inhibition (Inhibition of CD40 mRNA Levels by Chimeric Phosphorothioate Oligonucleotides)” value (“% Inhibition” below) was determined as 11.55%.

“19234 (antisense eG*eA*eA*eG*dG*dC*dA*dT*dT*dC*dC*dG*dT*dT*eT*e[5mC]*eA*eG) [compound 19234]”: the “% Inhibition” value amounted to 32.21%.

With “19256 (antisense eG*e[5mC]*eT*e[5mC]*dG*dC*dA*dG*dA*dT*dG*dG*dT*dA*eT*e[5mC]*eA*eG) [compound 19256]”, the “% Inhibition” value turned out to be 64.65%.

Regarding “19280 (eG*eG*eG*eT*dT*dC*dC*dT*dG*dC*dT*dT*dG*dG*eG*eG*eT*eG; antisense) [compound 19280]”, the “% Inhibition” value came out at 13.95%.

With “19249 (antisense eG*eG*eA*e[5mC]*dA*dC*dA*dG*dC*dT*dC*dT*dC*dA*e[5mC]*eA*eG*eG) [compound 19249]”, the “% Inhibition” value was found to be 0.00%.

As to “19279 (eT*eA*eT*eT*dG*dG*dT*dT*dG*dG*dC*dT*dT*dC*eT*eT*eG*eG; antisense) [compound 19279]”, the “% Inhibition” value is listed as 49.26%.

As to “19257 (antisense eG*e[5mC]*eA*eG*dG*dG*dC*dT*dC*dG*dC*dA*dG*dA*eT*eG*eG*eT) [compound 19257]”, the “% Inhibition” value was 74.95%.

Regarding “19238 (antisense eT*eG*eG*eG*dG*dT*dC*dG*dC*dA*dG*dT*dA*dT*eT*eT*eG*eT) [compound 19238]”, the “% Inhibition” value came to 0.00%.

Take “19222 (antisense eG*eT*eG*eG*dG*dT*dG*dG*dT*dT*dC*dT*dG*dG*eA*eT*eG*eG) [compound 19222]”: the “% Inhibition” value is 57.79%.

“19269 (eG*eT*eT*eT*dG*dT*dG*dC*dC*dT*dG*dC*dC*dT*eG*eT*eT*eG; antisense) [compound 19269]”: the “% Inhibition” value is 70.10%.

For the substance “19284 (eT*eG*eG*eA*dG*dC*dC*dA*dG*dG*dA*dA*dG*dA*eT*e[5mC]*eG*eT; antisense) [compound 19284]”, the “% Inhibition” value is on record as 54.48%.

Consider “19221 (antisense eG*eG*eT*eG*dG*dT*dT*dC*dT*dG*dG*dA*dT*dG*eG*eA*e[5mC]*eA) [compound 19221]”, for which the “% Inhibition” value was 81.33%.

As to “19243 (antisense eG*eT*eG*eT*dC*dT*dG*dT*dT*dT*dC*dT*dG*dA*eG*eG*eT*eG) [compound 19243]”, the “% Inhibition” value worked out at 63.32%.

Take “19247 (antisense eG*eT*eG*e[5mC]*dC*dA*dG*dC*dC*dT*dT*dC*dT*dT*e[5mC]*eA*e[5mC]*eA) [compound 19247]”: the “% Inhibition” value was 61.32%.

Regarding “19237 (antisense e[5mC]*eT*eG*eG*dT*dG*dG*dC*dA*dG*dT*dG*dT*dG*eT*e[5mC]*eT*e[5mC]) [compound 19237]”, the “% Inhibition” value is reported as 70.32%.

On to “19228 (antisense e[5mC]*eT*e[5mC]*eA*dC*dC*dA*dG*dT*dT*dT*dC*dT*dG*eT*e[5mC]*e[5mC]*eT) [compound 19228]”, for which the “% Inhibition” value amounted to 22.30%.

As for “19214 (DNA e[5mC]*eA*eG*eA*dG*dG*dC*dA*dG*dA*dC*dG*dA*dA*e[5mC]*e[5mC]*eA*eT; antisense) [compound 19214]”, the “% Inhibition” value is listed as 23.68%.

As to “19211 (DNA e[5mC]*e[5mC]*eA*eG*dG*dC*dG*dG*dC*dA*dG*dG*dA*dC*e[5mC]*eA*e[5mC]*eT; antisense) [compound 19211]”, the “% Inhibition” value is 75.71%.

Regarding “19278 (eT*eT*eT*eT*dG*dA*dT*dA*dA*dA*dG*dA*dC*dC*eA*eG*e[5mC]*eA; antisense) [compound 19278]”, the “% Inhibition” value is on record as 30.58%.

With “19274 (e[5mC]*eA*e[5mC]*e[5mC]*dA*dC*dC*dA*dG*dG*dG*dC*dT*dC*eT*e[5mC]*eA*eG; antisense) [compound 19274]”, the “% Inhibition” value stood at 23.08%.

For “19246 (antisense eT*eT*e[5mC]*eA*dC*dA*dG*dG*dT*dG*dC*dA*dG*dA*eT*eG*eG*eT) [compound 19246]”, the “% Inhibition” value amounted to 47.72%.

With “19271 (e[5mC]*e[5mC]*eA*e[5mC]*dA*dG*dA*dC*dA*dA*dC*dA*dT*dC*eA*eG*eT*e[5mC]; antisense) [compound 19271]”, the “% Inhibition” value was 11.22%.

Staying with this data set, now noted: oligodeoxynucleotides with phosphorothioate backbones throughout; averages from three experiments.
Take “18624 (DNA dG*dA*dC*dC*dA*dG*dG*dC*dG*dG*dC*dA*dG*dG*dA*dC*dC*dA; antisense) [compound 18624]”: the “% INHIB. (Inhibition of CD40 mRNA Levels by Phosphorothioate Oligodeoxynucleotides)” value came to 28.09%.

On to “18630 (DNA dG*dA*dC*dA*dG*dC*dG*dG*dT*dC*dA*dG*dC*dA*dA*dG*dC*dA; antisense) [compound 18630]”, for which the “% INHIB. (Inhibition of CD40 mRNA Levels by Phosphorothioate Oligodeoxynucleotides)” value turned out to be 0.00%.

With “18649 (DNA dC*dT*dG*dG*dT*dG*dG*dC*dA*dG*dT*dG*dT*dG*dT*dC*dT*dC; antisense) [compound 18649]”, the “% INHIB. (Inhibition of CD40 mRNA Levels by Phosphorothioate Oligodeoxynucleotides)” value came out at 0.00%.

Regarding “18652 (DNA dC*dT*dA*dG*dG*dT*dT*dG*dG*dG*dG*dT*dC*dG*dC*dA*dG*dT; antisense) [compound 18652]”, the “% INHIB. (Inhibition of CD40 mRNA Levels by Phosphorothioate Oligodeoxynucleotides)” value came out at 0.00%.

With “18699 (DNA dT*dG*dG*dC*dA*dT*dC*dC*dA*dT*dG*dT*dA*dA*dA*dG*dT*dC; antisense) [compound 18699]”, the “% INHIB. (Inhibition of CD40 mRNA Levels by Phosphorothioate Oligodeoxynucleotides)” value was found to be 0.00%.

“18693 (DNA dG*dT*dC*dG*dG*dG*dA*dA*dA*dA*dT*dT*dG*dA*dT*dC*dT*dC; antisense) [compound 18693]”: the “% INHIB. (Inhibition of CD40 mRNA Levels by Phosphorothioate Oligodeoxynucleotides)” value stood at 0.00%.

Turning to “18666 (DNA dG*dA*dA*dA*dC*dC*dC*dC*dT*dG*dT*dA*dG*dC*dA*dA*dT*dC; antisense) [compound 18666]”, the “% INHIB. (Inhibition of CD40 mRNA Levels by Phosphorothioate Oligodeoxynucleotides)” value was found to be 0.10%.

As for “18672 (DNA dC*dA*dT*dT*dG*dG*dA*dG*dA*dA*dG*dA*dA*dG*dC*dC*dG*dA; antisense) [compound 18672]”, the “% INHIB. (Inhibition of CD40 mRNA Levels by Phosphorothioate Oligodeoxynucleotides)” value stood at 0.00%.

With “18631 (DNA dG*dA*dT*dG*dG*dA*dC*dA*dG*dC*dG*dG*dT*dC*dA*dG*dC*dA; antisense) [compound 18631]”, the “% INHIB. (Inhibition of CD40 mRNA Levels by Phosphorothioate Oligodeoxynucleotides)” value is listed as 0.00%.

With “18653 (DNA dG*dG*dT*dG*dC*dC*dC*dT*dT*dC*dT*dG*dC*dT*dG*dG*dA*dC; antisense) [compound 18653]”, the “% INHIB. (Inhibition of CD40 mRNA Levels by Phosphorothioate Oligodeoxynucleotides)” value came to 19.67%.

Consider “18626 (DNA dC*dA*dG*dA*dG*dG*dC*dA*dG*dA*dC*dG*dA*dA*dC*dC*dA*dT; antisense) [compound 18626]”, for which the “% INHIB. (Inhibition of CD40 mRNA Levels by Phosphorothioate Oligodeoxynucleotides)” value is 0.00%.

On to “18669 (DNA dG*dC*dA*dG*dG*dG*dC*dT*dC*dG*dC*dA*dG*dA*dT*dG*dG*dT; antisense) [compound 18669]”, for which the “% INHIB. (Inhibition of CD40 mRNA Levels by Phosphorothioate Oligodeoxynucleotides)” value stood at 34.05%.

With “18687 (DNA dG*dG*dG*dA*dT*dC*dA*dC*dC*dA*dC*dC*dA*dG*dG*dG*dC*dT; antisense) [compound 18687]”, the “% INHIB. (Inhibition of CD40 mRNA Levels by Phosphorothioate Oligodeoxynucleotides)” value came to 0.00%.

On to “18690 (DNA dT*dT*dT*dT*dG*dA*dT*dA*dA*dA*dG*dA*dC*dC*dA*dG*dC*dA; antisense) [compound 18690]”, for which the “% INHIB. (Inhibition of CD40 mRNA Levels by Phosphorothioate Oligodeoxynucleotides)” value was found to be 0.00%.

Take “18676 (DNA dG*dT*dC*dC*dA*dA*dG*dG*dG*dT*dG*dA*dC*dA*dT*dT*dT*dT; antisense) [compound 18676]”: the “% INHIB. (Inhibition of CD40 mRNA Levels by Phosphorothioate Oligodeoxynucleotides)” value turned out to be 8.01%.

Regarding “18633 (DNA dG*dG*dT*dG*dG*dT*dT*dC*dT*dG*dG*dA*dT*dG*dG*dA*dC*dA; antisense) [compound 18633]”, the “% INHIB. (Inhibition of CD40 mRNA Levels by Phosphorothioate Oligodeoxynucleotides)” value was 0.00%.

Regarding “18684 (DNA dC*dT*dG*dG*dG*dG*dA*dC*dC*dA*dC*dA*dG*dA*dC*dA*dA*dC; antisense) [compound 18684]”, the “% INHIB. (Inhibition of CD40 mRNA Levels by Phosphorothioate Oligodeoxynucleotides)” value amounted to 0.00%.

For “18686 (DNA dC*dA*dC*dC*dA*dC*dC*dA*dG*dG*dG*dC*dT*dC*dT*dC*dA*dG; antisense) [compound 18686]”, the “% INHIB. (Inhibition of CD40 mRNA Levels by Phosphorothioate Oligodeoxynucleotides)” value was determined as 23.31%.

Regarding “18665 (DNA dA*dA*dT*dC*dT*dG*dC*dT*dT*dG*dA*dC*dC*dC*dC*dA*dA*dA; antisense) [compound 18665]”, the “% INHIB. (Inhibition of CD40 mRNA Levels by Phosphorothioate Oligodeoxynucleotides)” value is given as 5.59%.

As for “18695 (DNA dG*dG*dA*dG*dC*dC*dA*dG*dG*dA*dA*dG*dA*dT*dC*dG*dT*dC; antisense) [compound 18695]”, the “% INHIB. (Inhibition of CD40 mRNA Levels by Phosphorothioate Oligodeoxynucleotides)” value was 0.00%.

“18698 (DNA dG*dT*dA*dA*dA*dG*dT*dC*dT*dC*dC*dT*dG*dC*dA*dC*dT*dG; antisense) [compound 18698]”: the “% INHIB. (Inhibition of CD40 mRNA Levels by Phosphorothioate Oligodeoxynucleotides)” value was 0.00%.

For the substance “18677 (DNA dC*dA*dC*dA*dG*dC*dT*dT*dG*dT*dC*dC*dA*dA*dG*dG*dG*dT; antisense) [compound 18677]”, the “% INHIB. (Inhibition of CD40 mRNA Levels by Phosphorothioate Oligodeoxynucleotides)” value was determined as 0.00%.

“18628 (DNA dG*dC*dA*dA*dG*dC*dA*dG*dC*dC*dC*dC*dA*dG*dA*dG*dG*dA; antisense) [compound 18628]”: the “% INHIB. (Inhibition of CD40 mRNA Levels by Phosphorothioate Oligodeoxynucleotides)” value was found to be 0.00%.
